Results: US9783552B2, “Soluble guanylate cyclase activators” (MERCK SHARP & DOHME CORP., priority 2013, dated 2017)

Target: T1, sGC α1/β1 heterodimer (Homo sapiens, UniProt Q02108+Q02153)
T1 construct: expressed in transfected cells
T1 sequence (Q02108 1-690): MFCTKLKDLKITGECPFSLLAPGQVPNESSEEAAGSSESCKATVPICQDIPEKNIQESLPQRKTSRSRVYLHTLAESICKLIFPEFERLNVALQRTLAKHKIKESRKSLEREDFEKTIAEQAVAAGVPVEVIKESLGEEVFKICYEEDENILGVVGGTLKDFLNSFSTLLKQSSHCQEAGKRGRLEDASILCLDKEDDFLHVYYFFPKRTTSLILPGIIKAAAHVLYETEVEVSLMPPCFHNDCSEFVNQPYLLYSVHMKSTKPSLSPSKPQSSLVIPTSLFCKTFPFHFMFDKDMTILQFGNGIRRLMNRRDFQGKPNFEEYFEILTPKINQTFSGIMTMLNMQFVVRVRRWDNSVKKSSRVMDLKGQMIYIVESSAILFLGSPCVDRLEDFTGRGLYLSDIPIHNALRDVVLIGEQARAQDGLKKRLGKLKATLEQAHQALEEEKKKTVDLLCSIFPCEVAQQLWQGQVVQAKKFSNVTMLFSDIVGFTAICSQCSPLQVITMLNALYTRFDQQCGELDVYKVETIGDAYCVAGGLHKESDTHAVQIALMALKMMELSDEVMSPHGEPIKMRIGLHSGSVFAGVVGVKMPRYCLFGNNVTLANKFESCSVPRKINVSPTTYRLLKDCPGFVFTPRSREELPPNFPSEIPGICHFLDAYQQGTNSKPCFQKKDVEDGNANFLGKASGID
T1 sequence (Q02153 1-619): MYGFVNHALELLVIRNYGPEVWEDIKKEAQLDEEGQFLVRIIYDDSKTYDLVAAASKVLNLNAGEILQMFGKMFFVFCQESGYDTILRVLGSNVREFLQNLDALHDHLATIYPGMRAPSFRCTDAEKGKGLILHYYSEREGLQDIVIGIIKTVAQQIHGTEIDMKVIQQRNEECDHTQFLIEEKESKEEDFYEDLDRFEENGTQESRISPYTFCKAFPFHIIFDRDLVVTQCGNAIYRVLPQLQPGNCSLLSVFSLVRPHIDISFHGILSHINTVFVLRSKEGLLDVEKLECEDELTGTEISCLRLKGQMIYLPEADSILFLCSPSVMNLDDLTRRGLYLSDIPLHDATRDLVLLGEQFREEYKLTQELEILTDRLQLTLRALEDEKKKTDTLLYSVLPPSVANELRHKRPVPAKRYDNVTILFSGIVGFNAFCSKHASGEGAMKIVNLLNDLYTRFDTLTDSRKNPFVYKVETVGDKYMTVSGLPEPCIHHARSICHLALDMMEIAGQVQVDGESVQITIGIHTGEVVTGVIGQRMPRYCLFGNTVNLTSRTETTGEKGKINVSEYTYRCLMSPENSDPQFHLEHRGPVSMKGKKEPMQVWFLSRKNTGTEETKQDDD
Experiment: Cell-Based sGC Functional Assay (CASA Assay)
Conditions: CHO-K1/sGC cells; for EC50: intracellular cGMP by HTRF, 1 hr at 37° C., IP from 4P fit, presence or absence of 1 μM DETA-NO not given; for Emax: cGMP as percentage of maximum cGMP production of Compound A (=100% activation), read-out: % ACT (percent activation)
Procedure, shortened: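 CHO-K1 cells stably expressing human sGC α1/β1 were incubated with compound (2.5% DMSO) for 1 hr at 37 °C with 0.5 mM IBMX, with or without 1 μM DETA-NO. Intracellular cGMP was measured by HTRF and expressed as % of the maximal cGMP produced by a reference sGC heme-dependent activator. IP and maximum fold induction came from a 4-parameter fit.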

EC50 | Emax | Compound
47 nM | 106% | [2H]C([2H])([2H])n1ccc2c(-c3nc(N)c4c(n3)NC(=O)C4(C)c3ccccc3)nc(CCC(F)(F)C(F)(F)F)nc21 (single isomer, unassigned) [Example 60, 4-Amino-5-methyl-2′-(3,3,4,4,4-pentafluorobutyl)-5-phenyl-7′-trideuteriomethyl-5H,7′H-[2,4′-bipyrrolo[2,3-d]pyrimidin]-6(7H)-one]
12 nM | 83% | Cn1ccc2c(-c3nc(N)c4c(n3)NC(=O)C4(C)c3ccccc3)nc(Cc3cccc(F)c3F)nc21 (single isomer, unassigned) [Example 64, 4-Amino-2′-(2,3-difluorobenzyl)-5,7′-dimethyl-5-phenyl-5H,7′H-[2,4′-bipyrrolo[2,3-d]pyrimidin]-6(7H)-one]
255 nM | 102% | CC1(c2ccccc2)C(=O)Nc2nc(-c3nc(CCC(F)(F)C(F)(F)F)nc4[nH]ccc34)nc(N)c21 (single isomer, unassigned) [Example 65, 4-Amino-5-methyl-2′-(3,3,4,4,4-pentafluorobutyl)-5-phenyl-5H,7′H-[2,4′-bipyrrolo[2,3-d]pyrimidin]-6(7H)-one]
156 nM | 69% | Cn1nnc2c(-c3nc(N)c4c(n3)NC(=O)C4(C)c3ccc(F)cc3)nc(Cc3cccc(F)c3F)nc21 (single isomer, unassigned) [Example 66]
403 nM | 107% | [2H]C([2H])([2H])n1nnc2c(-c3nc(N)c4c(n3)NC(=O)C4(C)c3ccccc3)nc(CCC(F)(F)C(F)(F)F)nc21 (single isomer, unassigned) [Example 68, 4-Amino-5-methyl-2-(5-(3,3,4,4,4-pentafluorobutyl-3-trideuteriomethyl)-3H-[1,2,3]triazolo[4,5-d]pyrimidin-7-yl)-5-phenyl-5H-pyrrolo[2,3-d]pyrimidin-6(7H)-one]
327 nM | 95% | [2H]C([2H])([2H])n1nnc2c(-c3nc(N)c4c(n3)NC(=O)C4(C)c3ccc(Cl)cc3)nc(CCC(F)(F)C(F)(F)F)nc21 (single isomer, unassigned) [Example 70, 4-Amino-5-(4-chlorophenyl)-5-methyl-2-(5-(3,3,4,4,4-pentafluorobutyl-3-trideuteriomethyl)-3H-[1,2,3]triazolo[4,5-d]pyrimidin-7-yl)-5H-pyrrolo[2,3-d]pyrimidin-6(7H)-one]
424 nM | 66% | [2H]C([2H])([2H])n1nnc2c(-c3nc(N)c4c(n3)NC(=O)C4(C)c3ccc(F)c(OC)c3)nc(CCC(F)(F)C(F)(F)F)nc21 (single isomer, unassigned) [Example 72, 4-Amino-5-(4-fluoro-3-methoxyphenyl)-5-methyl-2-(5-(3,3,4,4,4-pentafluorobutyl-3-trideuteriomethyl)-3H-[1,2,3]triazolo[4,5-d]pyrimidin-7-yl)-5H-pyrrolo[2,3-d]pyrimidin-6(7H)-one]
111 nM | 88% | [2H]C([2H])([2H])n1ncc2c(-c3nc(N)c4c(n3)NC(=O)C4(C)c3cccc(O)c3)nc(CCC(F)(F)C(F)(F)F)nc21 (stereo not shown) [Example 44, 4-Amino-5-(3-hydroxyphenyl)-5-methyl-2-(6-(3,3,4,4,4-pentafluorobutyl)-1-trideuteriomethyl-1H-pyrazolo[3,4-d]pyrimidin-4-yl)-5H-pyrrolo[2,3-d]pyrimidin-6(7H)-one]
664 nM | 93% | [2H]C([2H])([2H])n1ncc2c(-c3nc(O)c4c(n3)NC(=O)C4(C)c3ccc(F)cc3)nc(CCC(F)(F)C(F)(F)F)nc21 (stereo not shown) [Example 48, 5-(4-Fluorophenyl)-4-hydroxy-5-methyl-2-(6-(3,3,4,4,4-pentafluorobutyl)-1-trideuteriomethyl-1H-pyrazolo[3,4-d]pyrimidin-4-yl)-5H-pyrrolo[2,3-d]pyrimidin-6(7H)-one]
746 nM | 109% | Cn1ncc2c(-c3nc(N)c4c(n3)NC(=O)C4(C)NC(=O)c3ccccn3)nc(CCC(F)(F)C(F)(F)F)nc21 (stereo not shown) [Example 51, N-(4-Amino-5-methyl-2-(1-methyl-6-(3,3,4,4,4-pentafluorobutyl)-1H-pyrazolo[3,4-d]pyrimidin-4-yl)-6-oxo-6,7-dihydro-5H-pyrrolo[2,3-d]pyrimidin-5-yl)picolinamide]
614 nM | 92% | Cn1ncc2c(-c3nc(N)c4c(n3)NC(=O)C4(C)NC(=O)CC3CC3)nc(CCC(F)(F)C(F)(F)F)nc21 (stereo not shown) [Example 52, N-(4-Amino-5-methyl-2-(1-methyl-6-(3,3,4,4,4-pentafluorobutyl)-1H-pyrazolo[3,4-d]pyrimidin-4-yl)-6-oxo-6,7-dihydro-5H-pyrrolo[2,3-d]pyrimidin-5-yl)-2-cyclopropylacetamide]
869 nM | 104% | Cn1ncc2c(-c3nc(N)c4c(n3)NC(=O)C4(C)NC(=O)C3CC3)nc(CCC(F)(F)C(F)(F)F)nc21 (stereo not shown) [Example 53, N-(4-Amino-5-methyl-2-(1-methyl-6-(3,3,4,4,4-pentafluorobutyl)-1H-pyrazolo[3,4-d]pyrimidin-4-yl)-6-oxo-6,7-dihydro-5H-pyrrolo[2,3-d]pyrimidin-5-yl)cyclopropanecarboxamide]
87 nM | 118% | Cn1ncc2c(-c3nc(N)c4c(n3)NC(=O)C4(C)NCC3CC3)nc(CCC(F)(F)C(F)(F)F)nc21 (stereo not shown) [Example 54, 4-Amino-5-((cyclopropylmethyl)amino)-5-methyl-2-(1-methyl-6-(3,3,4,4,4-pentafluorobutyl)-1H-pyrazolo[3,4-d]pyrimidin-4-yl)-5H-pyrrolo[2,3-d]pyrimidin-6(7H)-one]
119 nM | 118% | CC(C)NC1(C)C(=O)Nc2nc(-c3nc(CCC(F)(F)C(F)(F)F)nc4c3cnn4C)nc(N)c21 (stereo not shown) [Example 55, 4-Amino-5-(isopropylamino)-5-methyl-2-(1-methyl-6-(3,3,4,4,4-pentafluorobutyl)-1H-pyrazolo[3,4-d]pyrimidin-4-yl)-5H-pyrrolo[2,3-d]pyrimidin-6(7H)-one]
113 nM | 139% | [2H]C([2H])([2H])OC1(C)C(=O)Nc2nc(-c3nc(CCC(F)(F)C(F)(F)F)nc4c3cnn4C)nc(N)c21 (stereo not shown) [Example 57, 4-Amino-5-methyl-5-trideuteriomethoxy-2-(1-methyl-6-(3,3,4,4,4-pentafluorobutyl)-1H-pyrazolo[3,4-d]pyrimidin-4-yl)-5H-pyrrolo[2,3-d]pyrimidin-6(7H)-one]
299 nM | 94% | [2H]C([2H])([2H])n1nc(C2CC2)c2c(-c3nc(N)c4c(n3)NC(=O)C4(C)c3ccc(F)cc3)nc(CCC(F)(F)C(F)(F)F)nc21 (stereo not shown) [Example 59, 4-Amino-2-(3-cyclopropyl-6-(3,3,4,4,4-pentafluorobutyl)-1-trideuteriomethyl-1H-pyrazolo[3,4-d]pyrimidin-4-yl)-5-(4-fluorophenyl)-5-methyl-5H-pyrrolo[2,3-d]pyrimidin-6(7H)-one]
502 nM | 76% | Cn1ccc2c(-c3nc(N)c4c(n3)NC(=O)C4(C)C)nc(CCC(F)(F)C(F)(F)F)nc21 [Example 63, 4-Amino-5,5,7′-trimethyl-2′-(3,3,4,4,4-pentafluorobutyl)-5H,7′H-[2,4′-bipyrrolo[2,3-d]pyrimidin]-6(7H)-one]
